Patent US20150309031A2, “COMPOSITIONS AND METHODS FOR PROGNOSIS AND TREATMENT OF CANCER” (NOVAZOI THERANOSTICS, priority 2013, published 2015)

Assays:
PC3 cells = test: subG1 (hypodiploid) fraction by flow cytometry, PC3 cells; assay type: cell-based
Description: Trypsinized cells were resuspended in PBS at 10^6 cells/ml. Cells were then fixed by addition of ice-cold 70% ethanol. Ethanol-fixed cells were kept overnight at 4° C. before staining. Cells were pelleted and washed twice with PBS. Cell pellets were incubated for an hour at room temperature with mouse anti-MPM-2 antibody (Millipore, Mass., USA), followed by 1 h incubation with Alexa-488 anti-mouse secondary antibody (Life Technologies, NY, USA). Finally cells were washed, pelleted and resuspended in propidium iodide-containing isotonic buffer (0.1 mg/mL) and 0.5% Triton X-100. Cell cycle distribution was determined by flow cytometry using an LSR Fortessa Flow cytometer (BD Biosciences, CA, USA) and analyzed using Flowjo software (Tree Star, OR, USA). […] The duration, highest degree, and rapidity of onset of MA varied between drugs, drug concentrations, and cell lines (FIGS. 2A, 2B). In general, the maximum MA achieved was less pronounced in Nos- and PJ-treated cells (FIGS. 2A, 2B). Drug-induced onset of MA was corroborated by substantial increases in cyclin B1 levels in all cell lines (FIG. 2C). […] Instances where the subG1 fraction was elevated without cleaved caspase-3 may either represent caspase-independent cell death or the presence of hypodiploid cells whose fate is unclear.

[1] = tested on: mammary fibrocystic (MCF10A) cells; test: subG1 (hypodiploid) fraction by flow cytometry, MCF10A cells; assay type: cell-based; conditions: for Peak subG1 percent over 48 h: MCF10A
231 cells = test: Centrosome amplification (CA) by microscopy, 231 cells; assay type: cell-based; conditions: for maximum extent of CA in mitotic cells: over 24 h
Description: (§1) Consequently, CA was assessed in cultures treated with different concentrations of declustering drugs for 6, 12, 18, or 24 h and untreated controls via microscopy. […] The peak percent CA detected over 24 h is shown in FIG. 6 (only statistically significant (P<0.05) increases over control values are represented in the Figures). Representative confocal micrographs of CA in interphase and mitotic cells, both control and drug treated, are depicted in FIG. 7. […] To better understand the “potency” of drug-induced CA with time, the average fold change in CA over controls over 24 h was assessed (FIG. 5A), whereby the extent of CA across time points (i.e., 6, 12, 18, and 24 h) was averaged and then divided by the extent of CA in control (i.e., 0 h). […] For Nos and BN, there was no major difference in CA levels in interphase versus mitotic cells.

HeLa cells = test: Centrosome amplification (CA) by microscopy, HeLa cells; assay type: cell-based
Description: as §1

[2] = tested on: human dermal fibroblasts (HDFs); test: Centrosome amplification (CA) by microscopy, HDFs; assay type: cell-based
Description: Consequently, CA was assessed in cultures treated with different concentrations of declustering drugs for 6, 12, 18, or 24 h and untreated controls via microscopy. Centrosomes were identified by γ-tubulin and centrin-2 colocalization at discrete foci. […] The peak percent CA detected over 24 h is shown in FIG. 6 (only statistically significant (P<0.05) increases over control values are represented in the Figures). Representative confocal micrographs of CA in interphase and mitotic cells, both control and drug treated, are depicted in FIG. 7. No significant correlations between the degree of CA (FIG. 5A) and the expression levels of PLK4, Cyclin E, and Aurora A were found (FIG. 4).
To determine whether the CA-inducing activity of declustering drugs is restricted to cancer cells, two non-malignant cell lines, mammary fibrocystic (MCF10A) cells and adult human dermal fibroblasts were treated with these drugs. Neither one of RBN, GF or PJ induced CA or cell death (Table 8) in these cell lines. […] In comparison, 10 and 25 μM RBN increased peak CA over controls in interphase cells (p<0.001 and p=0.001, respectively), with the lower concentration dramatically augmenting peak CA to 56% of cells versus 15% for the higher dose (FIG. 9B). Only 10 but not 25 μM RBN increased the extent of CA in mitotic cells, and this upregulation was only slight (10%, p=0.041).

HDFs and MCF10A cells = test: Spindle multipolarity (MP) in non-malignant cell lines; assay type: cell-based
[3] = tested on: human ovarian cancer xenografts; conditions: nude mice carrying human ovarian cancer xenografts; cited from earlier work

reduced bromonoscapine [RBN]
Peak subG1 percent over 48 h (PC3 cells; 10 μM): 80.7%
maximum subG1 fraction relative to control (PC3 cells; 10 μM): 8 × control
Peak subG1 percent over 48 h (PC3 cells; 25 μM): 73.0%
change of peak subG1 percent compared to controls (in words) ([1]; MCF10A cells): did increase peak SubG1 in MCF10A cells compared to controls
Peak subG1 percent over 48 h ([1]; 10 μM): 36.4%
Peak subG1 percent over 48 h ([1]; 25 μM): 44.0%
change of peak CA extent over control (231 cells; 25 μM): only slightly more than doubled the peak CA extent
final extent of CA (231 cells; 25 μM): around 90%
maximum extent of CA in interphase cells (231 cells; 10 μM): 31%
maximum extent of CA in interphase cells (231 cells; 25 μM): 87%
fold increase of CA over controls, mitotic cells (231 cells; 10 μM): ~2.5 fold
maximum extent of CA in mitotic cells (231 cells; 10 μM): 56%
fold increase of CA over controls, mitotic cells (231 cells; 25 μM): ~2.0 fold
maximum extent of CA in mitotic cells (231 cells; 25 μM): 96%
peak extent of CA in interphase cells (HeLa cells; interphase, 10 μM): 30.7%
peak / final extent of CA in interphase cells (HeLa cells; interphase, 25 μM): 48.1%
cells having CA, mitotic cells (HeLa cells; 10 μM): 78%
fold increase of CA, mitotic cells (HeLa cells; 10 μM): approximately 40 fold
cells having CA, mitotic cells (HeLa cells; 25 μM): 42%
fold increase of CA, mitotic cells (HeLa cells; 25 μM): ~20 fold
peak CA in interphase cells ([2]; 10 μM): 56%
peak CA in interphase cells ([2]; 25 μM): 15%
extent of CA in mitotic cells ([2]; mitotic, 10 μM): 10%
induction of MP over control levels (HDFs and MCF10A cells): significantly induce MP over control levels
toxicity in normal tissues [3]: toxicity was not detected in normal tissues
tumor progression [3]: inhibited tumor progression
